{"source": "patent US20060142247A1", "about": "“Tricyclic heterocycles” (priority 2004, published 2006)"}
{"test_system": "HCT 116 cells", "experiment": "Viability assay HCT 116 cells (CellTiter-Glo)", "assay_type": "cell-based", "details": "Homo sapiens, HCT-116, 120 h, HCT 116 human colon carcinoma cells, 5 days incubation, CellTiter-Glo luminescence", "procedure,_shortened": "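Human colon carcinoma cells seeded at 1000/well in RPMI 1640 with GlutaMAX, FCS and Pen/Strep, incubated 24 h at 37 °C, then treated with 10 concentrations (30 μM to 0.0015 μM, 1:3). After 5 days, viability read by CellTiter-Glo ATP luminescence.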", "units": {"IC50": "µM"}}
{"smiles": "CC1(C)C(=O)N(CCN)c2cc3[nH]c(-c4n[nH]c5ccccc45)nc3cc21", "note": "[Example 52, 5-(2-Amino-ethyl)-2-(1H-indazol-3-yl)-7,7-dimethyl-5,7-dihydro-3H-imidazo[4,5-f]indol-6-one]", "IC50": "0.1 to 1"}
{"smiles": "CC1(C)C(=O)N(CCCN2CCOCC2)c2cc3[nH]c(-c4n[nH]c5ccccc45)nc3cc21", "note": "[Example 7, 2-(1H-indazol-3-yl)-7,7-dimethyl-5-(3-morpholin-4-yl-propyl)-5,7-dihydro-3H-imidazo[4,5-f]indol-6-one]", "IC50": 0.28}
{"smiles": "CC1(C)C(=O)N(Cc2ccc(S(C)(=O)=O)cc2)c2cc3[nH]c(-c4n[nH]c5ccccc45)nc3cc21", "note": "[Example 27, 2-(1H-Indazol-3-yl)-5-(4-methanesulfonyl-benzyl)-7,7-dimethyl-5,7-dihydro-3H-imidazol[4,5-f]indol-6-one]", "IC50": "0.1 to 1"}
{"smiles": "C=CCN1C(=O)C(C)(C)c2cc3nc(-c4n[nH]c5ccccc45)[nH]c3cc21", "note": "[Example 2, 5-Allyl-2-(1H-indazol-3-yl)-7,7-dimethyl-5,7-dihydro-3H-imidazo[4,5-f]indol-6-one]", "IC50": 0.18}
{"smiles": "CC1(C)C(=O)N(CC(=O)N2CCOCC2)c2cc3[nH]c(-c4n[nH]c5ccccc45)nc3cc21", "note": "[Example 40, 2-(1H-Indazol-3-yl)-7,7-dimethyl-5-(2-morpholin-4-yl-2-oxo-ethyl)-5,7-dihydro-3H-imidazo[4,5-f]indol-6-one]", "IC50": "0.1 to 1"}
{"smiles": "CC1(C)C(=O)N(Cc2ccccc2)c2cc3[nH]c(-c4n[nH]c5ccccc45)nc3cc21", "note": "[Example 26, 5-Benzyl-2-(1H-indazol-3-yl)-7,7-dimethyl-5,7-dihydro-3H-imidazo[4,5-f]indol-6-one]", "IC50": "0.1 to 1"}
{"smiles": "CCN1C(=O)C(C)(C)c2cc3nc(-c4n[nH]c5ccccc45)[nH]c3cc21", "note": "[Example 3, 5-Ethyl-2-(1H-indazol-3-yl)-7,7-dimethyl-5,7-dihydro-3H-imidazo[4,5-f]indol-6-one]", "IC50": "0.1 to 1"}
{"smiles": "CC1(C)C(=O)N(CC(N)=O)c2cc3[nH]c(-c4n[nH]c5ccccc45)nc3cc21", "note": "[Example 37, 2-[2-(1H-Indazol-3-yl)-7,7-dimethyl-6-oxo-6,7-dihydro-3H-imidazo[4,5-f]indol-5-yl]-acetamide]", "IC50": "0.1 to 1"}
{"smiles": "CC1(C)C(=O)N(CCO)c2cc3[nH]c(-c4n[nH]c5ccccc45)nc3cc21", "note": "[Example 34, 5-(2-Hydroxy-ethyl)-2-(1H-indazol-3-yl)-7,7-dimethyl-5,7-dihydro-3H-imidazo[4,5-f]indol-6-one]", "IC50": "0.1 to 1"}
{"smiles": "CC1(C)C(=O)N(CC#N)c2cc3[nH]c(-c4n[nH]c5ccccc45)nc3cc21", "note": "[Example 24, [2-(1H-Indazol-3-yl)-7,7-dimethyl-6-oxo-6,7-dihydro-3H-imidazo[4,5-f]indol-5-yl]-acetonitrile]", "IC50": "0.1 to 1"}
{"smiles": "CC1(C)C(=O)N(CC(=O)NCc2ccccc2)c2cc3[nH]c(-c4n[nH]c5ccccc45)nc3cc21", "note": "[Example 39, N-Benzyl-2-[2-(1H-indazol-3-yl)-7,7-dimethyl-6-oxo-6,7-dihydro-3H-imidazo[4,5-f]indol-5-yl]-acetamide]", "IC50": "0.1 to 1"}
{"smiles": "CCC1C(=O)Nc2cc3nc(-c4[nH]nc5ccccc45)[nH]c3cc21", "note": "(stereo not drawn) [Example 13, 7-Ethyl-2-(1H-indazol-3-yl)-5,7-dihydro-3H-imidazo[4,5-f]indol-6-one]", "IC50": "0.1 to 1"}
{"smiles": "CC1(C)C(=O)N(CC(O)CO)c2cc3[nH]c(-c4n[nH]c5ccccc45)nc3cc21", "note": "(stereo not drawn) [Example 35, 5-(2,3-Dihydroxy-propyl)-2-(1H-indazol-3-yl)-7,7-dimethyl-5,7-dihydro-3H-imidazo [4,5-f]indol-6-one]", "IC50": "0.1 to 1"}
{"smiles": "CC(C)N1C(=O)C(C)(C)c2cc3nc(-c4n[nH]c5ccccc45)[nH]c3cc21", "note": "[Example 6, 2-(1H-indazol-3-yl)-5-isopropyl-7,7-dimethyl-5,7-dihydro-3H-imidazo[4,5-f]indol-6-one]", "IC50": "0.1 to 1"}
{"smiles": "CC1(C)C(=O)N(CC(=O)Nc2ccccc2)c2cc3[nH]c(-c4n[nH]c5ccccc45)nc3cc21", "note": "[Example 43, 2-[2-(1H-Indazol-3-yl)-7,7-dimethyl-6-oxo-6,7-dihydro-3H-imidazo[4,5-f]indol-5-yl]-N-phenyl-acetamide]", "IC50": "0.1 to 1"}
{"smiles": "CC1(C)C(=O)N(CCCN2CCCCC2)c2cc3[nH]c(-c4n[nH]c5ccccc45)nc3cc21", "note": "[Example 19, 2-(1H-Indazol-3-yl)-7,7-dimethyl-5-(3-piperidin-1-yl-propyl)-5,7-dihydro-3H-imidazo[4,5-f]indol-6-one]", "IC50": "0.1 to 1"}
{"smiles": "COCCOCCN1C(=O)C(C)(C)c2cc3nc(-c4n[nH]c5ccccc45)[nH]c3cc21", "note": "[Example 17, 2-(1H-Indazol-3-yl)-5-[2-(2-methoxy-ethoxy)-ethyl]-7,7-dimethyl-5,7-dihydro-3H-imidazo[4,5-f]indol-6-one]", "IC50": "0.1 to 1"}
{"smiles": "CN(C)CCCN1C(=O)C(C)(C)c2cc3nc(-c4n[nH]c5ccccc45)[nH]c3cc21", "note": "[Example 21, 5-(3-Dimethylamino-propyl)-2-(1H-indazol-3-yl)-7,7-dimethyl-5,7-dihydro-3H-imidazo[4,5-f]indol-6-one]", "IC50": "0.1 to 1"}
{"smiles": "C=CCCN1C(=O)C(C)(C)c2cc3nc(-c4n[nH]c5ccccc45)[nH]c3cc21", "note": "[Example 15, 5-But-3-enyl-2-(1H-indazol-3-yl)-7,7-dimethyl-5,7-dihydro-3H-imidazo[4,5-f]indol-6-one]", "IC50": "0.1 to 1"}
{"smiles": "CC1C(=O)Nc2cc3[nH]c(-c4n[nH]c5ccccc45)nc3cc21", "note": "(stereo not drawn) [Example 11, 2-(1H-Indazol-3-yl)-7-methyl-5,7-dihydro-3H-imidazo[4,5-f]indol-6-one]", "IC50": "0.1 to 1"}
{"smiles": "CC1(C)C(=O)Nc2cc3[nH]c(-c4n[nH]c5ccccc45)nc3cc21", "note": "[Example 8, 2-(1H-indazol-3-yl)-7,7-dimethyl-5,7-dihydro-3H-imidazo[4,5-f]indol-6-one]", "IC50": "0.1 to 1"}
{"smiles": "O=C1Nc2cc3nc(-c4n[nH]c5ccccc45)[nH]c3cc2C12CCCC2", "note": "[Example 9, 2-(1H-indazol-3-yl)-spiro[7,7-cyclopentan-5,7-dihydro-3H-imidazo[4,5-f]indol]-6-one]", "IC50": "0.1 to 1"}
{"smiles": "CC1(C)C(=O)N(CC(=O)NO)c2cc3[nH]c(-c4n[nH]c5ccccc45)nc3cc21", "note": "[Example 49, N-Hydroxy-2-[2-(1H-indazol-3-yl)-7,7-dimethyl-6-oxo-6,7-dihydro-3H-imidazo[4,5-f]indol-5-yl]-acetamide]", "IC50": "1 to 10"}
{"smiles": "CCCN1C(=O)C(C)(C)c2cc3nc(-c4n[nH]c5ccccc45)[nH]c3cc21", "note": "[Example 5, 2-(1H-indazol-3-yl)-7,7-dimethyl-5-propyl-5,7-dihydro-3H-imidazo[4,5-f]indol-6-one]", "IC50": "0.1 to 1"}
{"smiles": "CC1(C)C(=O)N(CC(=O)O)c2cc3[nH]c(-c4n[nH]c5ccccc45)nc3cc21", "note": "[Example 36, [2-(1H-Indazol-3-yl)-7,7-dimethyl-6-oxo-6,7-dihydro-3H-imidazo[4,5-f]indol-5-yl]-acetic acid]", "IC50": "1 to 10"}
{"smiles": "CC1(C)C(=O)N(CCO[Si](C)(C)C(C)(C)C)c2cc3[nH]c(-c4n[nH]c5ccccc45)nc3cc21", "note": "[Example 28, 5-[2-(tert-Butyl-dimethyl-silanyloxy)-ethyl]-2-(1H-indazol-3-yl)-7,7-dimethyl-5,7-dihydro-3H-imidazo[4,5-f]indol-6-one]", "IC50": "0.1 to 1"}
{"smiles": "CCOC(=O)CN1C(=O)C(C)(C)c2cc3nc(-c4n[nH]c5ccccc45)[nH]c3cc21", "note": "[Example 23, [2-(1H-Indazol-3-yl)-7,7-dimethyl-6-oxo-6,7-dihydro-3H-imidazo[4,5-f]indol-5-yl]-acetic acid ethyl ester]", "IC50": "0.1 to 1"}
